Assay results as given in patent US6716968B2, “Apoptosis-related compounds and their use” (Peviva AB, priority 1997, dated 2004).
Ends that are not written are not given here.

The substances below were run on monoclonal antibody M30 (assay: ELISA reactivity of synthetic peptides with monoclonal antibody M30). Settings: SEQ ID NO: 1 set at 100.
Type: binding, mouse
Excerpt: These peptides having the amino acid sequences SEQ ID NO: 2 and 3 have been synthesized, and in an ELISA they bind to the mAb M 30 [relative activity: 100 for SEQ ID NO: 1; 11 for SEQ ID NO: 2; and 8.3 for SEQ ID NO: 3, respectively]. However, these two peptides are not expected to represent cleaved fragments of CK18 specific for apoptosis, since the mAb M 30 cannot bind to CK18 fragments until they expose the neo-epitope having the C-terminal sequence Ala Leu Asp.
The oligopeptides made in order to illustrate the invention were synthesized using the multipin peptide synthesis approach using polyethylene supports derivatized with an acid handle (Cf. Valerio, R. M., Bray, A. M. and Maeji, N. J. (1994) Multiple peptide synthesis on acid-labile handle derivatized polyethylene supports. Int. J. Peptide Protein Res. 44:158-165.). The synthesis was carried out on detachable pins grafted with hydroxyethylmethacrylate and functionalized with the trifluoroacetic acid-labile Rink amide forming handle. Peptides representing both the N and C terminal truncation series of the sequence EDFNLGDALD (SEQ ID NO:1) and other sequences were synthesized. Peptides were capped with biotin using the tetra peptide linker sequence—SGSG- or —SGSB- (B=βalanine), and attached to streptavidin coated plates in the enzyme-linked immunosorbent assay.
In order to characterize the MAb M30-epitope chemically, the M30was tested against a large number of synthetic peptides, that were especially made for this purpose.

Point of comparison: LEDGEDFNLGDALDSSNS [SEQ ID NO: 3], “relative activity (binding to mAb M 30 in ELISA)” value 8.3. Against it:
- EDFNLGDALD [SEQ ID NO: 1] — higher, 100
- EDGEDFNLGDALDSSNSMQT [SEQ ID NO: 2] — higher, 11

Same assay, conditions: biotin-capped peptide attached to streptavidin coated plates, ELISA with MAb M30

Point of comparison: “DFNLGDALD (OTHER INFORMATION: Description of Artificial Sequence: epitope from mammalian protein) [Peptide 401]”, “Absorbance at 405/492 nm” value 0.62. Against it:
- DALD (OTHER INFORMATION: Description of Artificial Sequence: epitope from mammalian protein) [Peptide 406] — lower, 0.1
- DGEDFNLGDALD (OTHER INFORMATION: Description of Artificial Sequence: epitope from mammalian protein) [Peptide 46] — higher, 0.77
- EDFNLGDALD (OTHER INFORMATION: Description of Artificial Sequence: epitope from mammalian protein) [Peptide 301] — higher, 1.46
- EDGEDFNLGDALD (OTHER INFORMATION: Description of Artificial Sequence: epitope from mammalian protein) [Peptide 45] — higher, 1.05
- FNLGDALD (OTHER INFORMATION: Description of Artificial Sequence: epitope from mammalian protein) [Peptide 402] — lower, 0.27
- GDALD (OTHER INFORMATION: Description of Artificial Sequence: epitope from mammalian protein) [Peptide 405] — lower, 0.1
- GEDFNLGDALD [47] (OTHER INFORMATION: Description of Artificial Sequence: epitope from mammalian protein) [Peptide 47] — higher, 1.23
- GEDFNLGDALD [302] (OTHER INFORMATION: Description of Artificial Sequence: epitope from mammalian protein) [Peptide 302] — higher, 1.41
- LEDGEDFNLGDAL (OTHER INFORMATION: Description of Artificial Sequence: epitope from mammalian protein) [Peptide 63] — lower, 0.05
- LEDGEDFNLGDALDS (OTHER INFORMATION: Description of Artificial Sequence: epitope from mammalian protein) [Peptide 61] — lower, 0.1
- LGDALD (OTHER INFORMATION: Description of Artificial Sequence: epitope from mammalian protein) [Peptide 404] — lower, 0.1
- NLGDALD (OTHER INFORMATION: Description of Artificial Sequence: epitope from mammalian protein) [Peptide 403] — lower, 0.14

Same assay, conditions: truncation series of Table 1

With EDFNLGDALD [SEQ ID NO: 1] the “activity (reactivity with MAb M30) in words” value was “maximal activity”.
